According to publication PMC11836371, “Virtual fragment screening for DNA repair inhibitors in vast chemical space” (Nature Communications, 2025):
Several values for one entry are separate records, joined by “and”; a condition that tells them apart may be missing. Equal values may be shown once. Read-outs that look alike come from different tables or passages of the source.

Legend:
[1] = Metabolic stability in human liver microsomes; assay type: in vitro ADME; conditions: pH 7.4, intrinsic clearance
Procedure: Human liver microsomes were purchased from BioIVT. Metabolic stability was determined in 0.5 mg/mL human liver microsomes at a compound concentration of 1 µM in 100 mM KPO4 buffer pH 7.4 in a total incubation volume of 500 µL. The reaction was initiated by the addition of 1 mM NADPH. At various incubation times, i.e., at 0, 5, 10, 20, 40, and 60 min, a sample was withdrawn from the incubation and the reaction was terminated by the addition of cold acetonitrile with warfarin as an internal standard. The amount of parent compound remaining was analyzed by liquid chromatography coupled to triple quadrupole mass spectrometry (LC-MS/MS).

[2] = tested on: NF-κB activation in HEK293T pGF NF-κB cells; test: TNF-α induced NF-κB activation assay; assay type: cell-based; conditions: for EC50: Homo sapiens, HEK-293T
Procedure: The inhibition of TNF-α induced NF-κB activation was measured in HEK293T cells transfected with the pGreenfire NF-κB plasmid. This is a plasmid that has NF-κB response elements (TRE) coupled to GFP and luciferase expression. When the NF-κB is activated by TNF-α, it binds to the TRE and induces GFP expression, and the fluorescence can be measured in a plate reader. The cells were authenticated with STR profiling, frozen down and these stocks were used in experiments. The HEK293T pGF NF-κB cells were kept in DMEM with 5% FBS and 1% P/S but, when seeded for the assay the medium was changed to DMEM FluoroBrite with 1% dialyzed FBS. All cell culture reagents were purchased from Thermo Fisher Scientific. Compounds were nano-dispensed (Echo acoustic dispenser) in 96-well, black/clear, assay plates (Corning #3904), duplicate plates, in 8-points dose-response curves, 1:2 dilutions, with DMSO compensation (0.3% DMSO). Cells were seeded at 30000 cells/well in medium containing 10 ng/mL of TNF-α (Sigma-Aldrich), except negative control wells which only contained cells in medium. Cells were cultured for 24 hours in a humidified incubator at 37 °C with 5% CO2 after which the GFP fluorescence was measured in a Sense plate reader (Hidex) with ex485/em535. The RFU data from the duplicate plates were combined to calculate % inhibition of NF-κB activation and IC50-values were calculated using XLfit (IDBS). In parallel with the NF-κB assay, a CellTiterGlo (Promega) cell viability assay was run to exclude compounds affecting cell viability. Compounds were nano-dispensed (Echo acoustic dispenser) in assay plates in 11-points dose-response curves, 1:3 dilutions, without DMSO compensation, with duplicates on the same plate. Cells were seeded at 7500 cells/well in 25 µL medium (DMEM FluoroBrite with 1% dialyzed FBS) containing 10 ng/mL TNF-α and cultured for 24 hours, with column 24 containing only culture medium. After equilibration to room temperature, the CellTiterGlo reagents were mixed and 25 µL/well were added to the cell plate. After 2 min mixing of the plate on an orbital shaker, the plate was incubated for 10 min at room temperature followed by luminescence reading in Sense. The cell viability was calculated compared to untreated control wells and the EC50 values were determined in XLfit (IDBS). […]

OGG1-GFP in U2OS cells = target: T1, OGG1-GFP in U2OS cells (Homo sapiens, UniProt O15527); test: Laser microirradiation assay (OGG1-GFP recruitment to DNA damage sites); assay type: cell-based; conditions: for OGG1-GFP recruitment to DNA damage sites, intensity normalised to time 0 (Figure3E): single-cell replicate traces
T1 construct: expressed in transfected cells
T1 sequence (O15527 whole entry): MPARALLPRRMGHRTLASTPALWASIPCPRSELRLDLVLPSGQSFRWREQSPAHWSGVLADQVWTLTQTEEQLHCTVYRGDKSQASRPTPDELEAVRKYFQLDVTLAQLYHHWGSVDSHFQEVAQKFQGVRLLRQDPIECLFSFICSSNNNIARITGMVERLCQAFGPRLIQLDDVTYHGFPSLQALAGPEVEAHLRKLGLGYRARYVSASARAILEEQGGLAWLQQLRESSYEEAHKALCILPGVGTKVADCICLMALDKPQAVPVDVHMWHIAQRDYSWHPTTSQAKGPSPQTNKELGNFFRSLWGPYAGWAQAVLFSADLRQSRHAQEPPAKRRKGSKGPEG

MTH1 = MTH1 (Homo sapiens, UniProt P36639); test: biochemical
Procedure: Inhibition of the following enzymes was assessed in the selectivity assays: apurinic/apyrimidinic endonuclease (APE1), endonuclease 8-like 1 (NEIL1), oxidized purine nucleoside triphosphate hydrolase (MTH1) and single-strand selective monofunctional uracil DNA glycosylase (SMUG1). BER enzymes were assayed with a similar strategy as OGG1, using identical DNA sequences surrounding the substrate lesion and the same reaction buffer containing 2 nM APE1. To assess SMUG1 inhibition, a 375 nM substrate containing uracil opposite guanine and 0.3 U SMUG1 enzyme (M0336 from New England Biolabs) was used. To assess NEIL1 inhibition, a 20 nM substrate containing thymidine glycol opposite adenine and 10 nM NEIL1 was used. To assess APE1 inhibition, an UNG2 substrate was pre-treated with E. coli Uracil-DNA glycosylase (New England Biolabs M0280) to generate an AP-site opposite adenine, which was used at 10 nM concentration in the presence of 0.1 nM APE1. All BER inhibition assays were in the linear range and less than 40% of the total substrate had been consumed at readout. The experiments were performed in three independent replicates and the percentage inhibition was calculated relative to the signal of a DMSO-treated control. To assess MTH1 inhibition, MTH1-catalyzed dGTP hydrolysis was coupled to inorganic pyrophosphatase (PPase), thereby releasing inorganic phosphate. The produced free phosphate was then detected using the malachite green assay[76]. […] Substrate concentration at the Km value for the respective substrate was chosen if possible. Inhibition using 100 μM compound was tested in reaction buffer (100 mM Tris-Acetate pH 8.0, 10 mM magnesium acetate, 40 mM NaCl, 1 mM DTT, and 0.005% Tween-20). Samples were incubated with shaking at 22 °C for 15 minutes. The reaction was then stopped by the addition of the malachite green reagent[76]. Absorbance was read at 630 nm using a Hidex Sense plate reader after a period of incubation with the methylene green reagent of 15 minutes. The experiment was performed in three independent replicates and percentage inhibition was calculated relative to the signal of a DMSO-treated control.

SMUG1 = target: T2, SMUG1 (Homo sapiens, UniProt Q53HV7); test: BER enzyme selectivity assay, SMUG1; assay type: biochemical; conditions: Figure 3B, three independent experiments
T2 construct: purchased New England Biolabs M0336
T2 sequence (Q53HV7 1-270): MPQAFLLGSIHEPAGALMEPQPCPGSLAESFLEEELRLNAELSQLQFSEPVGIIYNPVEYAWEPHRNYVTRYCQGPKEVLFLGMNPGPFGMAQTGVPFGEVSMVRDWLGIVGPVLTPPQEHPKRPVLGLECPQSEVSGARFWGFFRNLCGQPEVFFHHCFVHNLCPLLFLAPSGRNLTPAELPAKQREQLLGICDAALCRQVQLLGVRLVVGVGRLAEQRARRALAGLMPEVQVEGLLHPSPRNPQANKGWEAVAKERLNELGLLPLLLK
Procedure: (§1) Inhibition of the following enzymes was assessed in the selectivity assays: apurinic/apyrimidinic endonuclease (APE1), endonuclease 8-like 1 (NEIL1), oxidized purine nucleoside triphosphate hydrolase (MTH1) and single-strand selective monofunctional uracil DNA glycosylase (SMUG1). BER enzymes were assayed with a similar strategy as OGG1, using identical DNA sequences surrounding the substrate lesion and the same reaction buffer containing 2 nM APE1. To assess SMUG1 inhibition, a 375 nM substrate containing uracil opposite guanine and 0.3 U SMUG1 enzyme (M0336 from New England Biolabs) was used. To assess NEIL1 inhibition, a 20 nM substrate containing thymidine glycol opposite adenine and 10 nM NEIL1 was used. […] All BER inhibition assays were in the linear range and less than 40% of the total substrate had been consumed at readout. The experiments were performed in three independent replicates and the percentage inhibition was calculated relative to the signal of a DMSO-treated control. […] The produced free phosphate was then detected using the malachite green assay[76]. […] Absorbance was read at 630 nm using a Hidex Sense plate reader after a period of incubation with the methylene green reagent of 15 minutes. The experiment was performed in three independent replicates and percentage inhibition was calculated relative to the signal of a DMSO-treated control.

APE1 = APE1 (Homo sapiens, UniProt P27695); test: biochemical
Sequence of APE1 (P27695 whole entry, species assumed): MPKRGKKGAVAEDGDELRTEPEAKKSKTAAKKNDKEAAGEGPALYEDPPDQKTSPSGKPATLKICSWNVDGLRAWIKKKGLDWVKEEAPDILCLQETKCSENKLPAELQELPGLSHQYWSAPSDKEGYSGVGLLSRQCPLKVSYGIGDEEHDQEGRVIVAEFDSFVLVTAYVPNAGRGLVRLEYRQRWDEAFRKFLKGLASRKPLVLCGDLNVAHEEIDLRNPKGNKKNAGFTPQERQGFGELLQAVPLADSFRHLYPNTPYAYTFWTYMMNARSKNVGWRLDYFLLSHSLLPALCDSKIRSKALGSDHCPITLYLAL
Procedure: as §1

NEIL1 = NEIL1 (Homo sapiens, UniProt Q96FI4); test: biochemical
Sequence of NEIL1 (Q96FI4 whole entry, species assumed): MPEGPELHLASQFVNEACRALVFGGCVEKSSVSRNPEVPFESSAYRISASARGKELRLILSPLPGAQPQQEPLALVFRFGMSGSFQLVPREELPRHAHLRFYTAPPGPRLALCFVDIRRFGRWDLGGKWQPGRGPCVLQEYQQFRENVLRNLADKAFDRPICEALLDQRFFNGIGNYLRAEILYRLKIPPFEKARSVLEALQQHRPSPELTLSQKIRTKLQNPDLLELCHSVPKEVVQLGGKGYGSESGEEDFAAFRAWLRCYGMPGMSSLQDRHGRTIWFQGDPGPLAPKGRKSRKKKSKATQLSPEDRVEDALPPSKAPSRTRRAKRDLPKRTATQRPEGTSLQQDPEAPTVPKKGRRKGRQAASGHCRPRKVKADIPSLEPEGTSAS
Procedure: as §1

OGG1 in HL60 cells = target: T3, OGG1 in HL60 cells (Homo sapiens, UniProt O15527); test: Cellular thermal shift assay (CETSA); assay type: cell-based
T3 construct: endogenous in cells; host or cells: HL60
T3 sequence (O15527 whole entry): as the sequence (O15527 whole entry) above
Procedure: CETSA experiments were carried out with intact HL60 cells treated in culture. Cells were seeded at a density of 350 000 cells/mL and treated with DMSO (0.01%, v/v) or 20 µM test compound for 2 h at 37 °C and 5% CO2 in a humidified incubator. Cells were washed once in 1x TBS (50 mM Tris-HCl, pH 7.6, 150 mM NaCl), resuspended in 1x TBS supplemented with protease inhibitors (Roche), and then divided into 30-µL aliquots corresponding to approximately 600,000 cells per sample in PCR strip tubes. Cells were heated in a Veriti Thermal Cycler (Applied Biosystems) for 3 min at indicated temperatures (temperature interval consisting of 2 °C increases, starting from 40 °C up to 62 °C) and cooled for 5 min at room temperature to allow precipitation of denatured proteins. 5x NP-40 buffer was added to the samples and cells were lysed by performing three freeze–thaw cycles at −80 °C for 3 min and at 37 °C for 3 min with gentle vortexing between the cycles. Cell lysates were then centrifuged at 17,000 g and 4 °C for 30 min to remove cellular debris and insoluble proteins. Supernatant was prepared for western blot analysis according to standard procedures. […]

[3] = Concentration 2.34e-7, single replicates
[4] = Concentration 4.69e-7, single replicates
[5] = Concentration 9.38e-7, single replicates
[6] = Concentration 1.88e-6, single replicates
[7] = Concentration 3.75e-6, single replicates
[8] = Concentration 7.5e-6, single replicates
[9] = Concentration 1.5e-5, single replicates
[10] = Concentration 3e-5, single replicates
[11] = NFκB activation assay, ± SD, read-out: pEC50 (converted)

Row | microsomal CLint at 1 µM [1] [µL/min/mg] | Structure (SMILES) | % inhibition of NF-κB activation (Figure3F) [2, 3] | % inhibition of NF-κB activation (Figure3F) [2, 4] | % inhibition of NF-κB activation (Figure3F) [2, 5] | % inhibition of NF-κB activation (Figure3F) [2, 6] | % inhibition of NF-κB activation (Figure3F) [2, 7] | % inhibition of NF-κB activation (Figure3F) [2, 8] | % inhibition of NF-κB activation (Figure3F) [2, 9] | % inhibition of NF-κB activation (Figure3F) [2, 10] | OGG1-GFP recruitment to DNA damage sites, intensity normalised to time 0 (Figure3E) (OGG1-GFP in U2OS cells; 10uM, time 14 s) | OGG1-GFP recruitment to DNA damage sites, intensity normalised to time 0 (Figure3E) (OGG1-GFP in U2OS cells; 10uM, time 16 s) | OGG1-GFP recruitment to DNA damage sites, intensity normalised to time 0 (Figure3E) (OGG1-GFP in U2OS cells; 10uM, time 18 s) | OGG1-GFP recruitment to DNA damage sites, intensity normalised to time 0 (Figure3E) (OGG1-GFP in U2OS cells; 10uM, time 20 s) | EC50 [2, 11] [µM] | also measured
1 | – | Nc1nn(-c2ccc(CC(=O)Nc3noc4c3CCCC4)cc2)c2ccccc12 [compound 11] | – | – | – | – | – | – | – | – | – | – | – | – | 10 | –
2 | 23.9 | Cc1nc(-c2ccc(CC(=O)Nc3noc4c3CCCC4)cc2)c(C)[nH]1 [compound 17] | – | – | – | – | – | – | – | – | – | – | – | – | 19.1 | IC50 (MTH1): 24.3 µM and 20.6 µM and 24.9 µM; IC50 (SMUG1): > 99 µM; IC50 (APE1): > 99 µM; IC50 (NEIL1): > 99 µM
3 | 39.7 | Cc1nc(-c2cc(F)c(CC(=O)Nc3noc4c3CCCC4)c(F)c2)c(C)[nH]1 [compound 23] | 12.9% and 24.6% and 2.1% | 11.9% and 16.7% and -7.9% | 11% and 6.8% and -9.9% | 11.1% and 26.6% and 2.8% | 21.4% and 46% and -1.3% | 38.5% and 60.8% and 40% | 56.3% and 70.5% and 50.3% | 64.4% and 84.7% and 71.9% | 1.25 (2×) and 1.24 (4×) and 1.21 and 1.14 and 1.19 (2×) and 1.22 (2×) and 1.23 and 1.26 and 1.2 | 1.27 (3×) and 1.26 (2×) and 1.29 (2×) and 1.23 (4×) and 1.12 and 1.19 and 1.18 and 1.24 | 1.27 (2×) and 1.28 (3×) and 1.24 (3×) and 1.15 and 1.21 and 1.19 and 1.25 (3×) and 1.31 | 1.3 and 1.29 and 1.33 and 1.26 and 1.15 and 1.24 and 1.21 and 1.27 (2×) and 1.28 | 6.31 | EC50 ([2]; inhibition of TNF-α-induced NF-κB activation, read-out: EC50): 6.3 µM; thermal stabilization of OGG1 in cells (CETSA) (OGG1 in HL60 cells): strong thermal stabilization; Maximum Intensity (OGG1-GFP at damage sites) (OGG1-GFP in U2OS cells; 50uM, single cells, U2OS): 1.31 and 1.3 and 1.27 and 1.34 and 1.37 and 1.28 and 1.23 and 1.32; OGG1-GFP recruitment to DNA damage sites, intensity normalised to time 0 (Figure3E) (OGG1-GFP in U2OS cells; 50uM, time 14 s): 1.18 (2×) and 1.14 and 1.21 (4×) and 1.2 (3×) and 1.12 and 1.19 (2×) and 1.22 and 1.23; OGG1-GFP recruitment to DNA damage sites, intensity normalised to time 0 (Figure3E) (OGG1-GFP in U2OS cells; 50uM, time 16 s): 1.19 and 1.14 and 1.22 (4×) and 1.15 and 1.21 (3×) and 1.2 (2×) and 1.24 and 1.25 and 1.23; OGG1-GFP recruitment to DNA damage sites, intensity normalised to time 0 (Figure3E) (OGG1-GFP in U2OS cells; 50uM, time 18 s): 1.2 (3×) and 1.15 (2×) and 1.22 (3×) and 1.21 (2×) and 1.24 (3×) and 1.23 and 1.27; recruitment of OGG1-GFP to laser-induced DNA damage sites (OGG1-GFP in U2OS cells; U2OS cells): impaired

Row | Structure (SMILES) | microsomal CLint at 1 µM [1] [µL/min/mg] | % inhibition of NF-κB activation (Figure3F) [2, 3] | % inhibition of NF-κB activation (Figure3F) [2, 4] | % inhibition of NF-κB activation (Figure3F) [2, 5] | % inhibition of NF-κB activation (Figure3F) [2, 6] | % inhibition of NF-κB activation (Figure3F) [2, 7] | % inhibition of NF-κB activation (Figure3F) [2, 8] | % inhibition of NF-κB activation (Figure3F) [2, 9] | % inhibition of NF-κB activation (Figure3F) [2, 10] | OGG1-GFP recruitment to DNA damage sites, intensity normalised to time 0 (Figure3E) (OGG1-GFP in U2OS cells; 10uM, time 14 s) | OGG1-GFP recruitment to DNA damage sites, intensity normalised to time 0 (Figure3E) (OGG1-GFP in U2OS cells; 10uM, time 16 s) | OGG1-GFP recruitment to DNA damage sites, intensity normalised to time 0 (Figure3E) (OGG1-GFP in U2OS cells; 10uM, time 18 s) | OGG1-GFP recruitment to DNA damage sites, intensity normalised to time 0 (Figure3E) (OGG1-GFP in U2OS cells; 10uM, time 20 s) | EC50 [2, 11] [µM] | also measured
4 | O=C(Nc1ccc(I)cc1)N1CCC(n2c(=O)[nH]c3c(Br)cccc32)CC1 [TH5487, reference compound] | 4.6 | 18.9% and 16.9% and 37.3% and 20.7% and 19.4% and 19.3% | 18.1% and 35.6% and 25.7% and 21.2% and 9.2% | 12.4% and 13.4% and 36.2% and 34.5% and 36.5% and 30% | 21% and 33.9% and 49.1% and 39.2% and 40.4% and 37.2% | 58.6% and 64.7% and 55% and 52% and 44.1% and 44% | 81.2% and 86.7% and 75.9% and 78.4% and 98.7% and 81.3% | 101.6% and 99.3% (2×) and 95.7% and 105.1% and 123.3% | 104.2% and 102% and 99.9% and 101.1% and 123.3% and 102.7% | 1.22 (3×) and 1.25 and 1.18 (2×) and 1.31 and 1.24 and 1.32 (2×) and 1.15 and 1.27 and 1.19 (2×) and 1.28 | 1.24 and 1.28 and 1.23 (2×) and 1.18 (2×) and 1.34 and 1.25 and 1.32 and 1.19 and 1.29 and 1.2 and 1.22 and 1.31 and 1.3 | 1.25 (2×) and 1.31 (2×) and 1.24 and 1.21 and 1.35 (2×) and 1.26 and 1.18 and 1.2 and 1.3 and 1.22 and 1.23 and 1.33 | 1.26 and 1.31 (2×) and 1.24 (3×) and 1.2 and 1.35 and 1.29 and 1.37 and 1.16 and 1.19 and 1.27 and 1.36 and 1.33 | – | OGG1-GFP recruitment to DNA damage sites, intensity normalised to time 0 (Figure3E) (OGG1-GFP in U2OS cells; 10uM, time 22 s): 1.27 and 1.32 and 1.28 (3×) and 1.2 and 1.36 and 1.37 (2×) and 1.18 and 1.22 (2×) and 1.34 and 1.25 and 1.35; OGG1-GFP recruitment to DNA damage sites, intensity normalised to time 0 (Figure3E) (OGG1-GFP in U2OS cells; 10uM, time 24 s): 1.29 (2×) and 1.32 and 1.25 (2×) and 1.21 and 1.37 (2×) and 1.39 and 1.18 and 1.22 and 1.35 and 1.3 and 1.24 and 1.36; OGG1-GFP recruitment to DNA damage sites, intensity normalised to time 0 (Figure3E) (OGG1-GFP in U2OS cells; 10uM, time 26 s): 1.29 (2×) and 1.32 and 1.28 and 1.21 and 1.38 (2×) and 1.4 and 1.19 and 1.22
